Tested on: HIV-IIIb
Assay: Test A: Antiviral Assays in MT4 Cells
Format: cell-based
Conditions: MT-4 cells infected with HIV-IIIb (0.004 m.o.i.), 5 days of incubation, CellTiter-Glo chemiluminescence readout
Description: Test A: Antiviral Assays in MT4 Cells For the antiviral assay utilizing MT-4 cells, 0.4 μL of 189X test concentration of 3-fold serially diluted compound in DMSO was added to 40 μL of cell growth medium (RPMI 1640, 10% FBS, 1% penicillin/Streptomycin, 1% L-Glutamine, 1% HEPES) in each well of 384-well assay plates (10 concentrations) in quadruplicate. 1 mL aliquots of 2×10e6 MT-4 cells are pre-infected for 1 and 3 hrs respectively, @ 37° C. with 25 μL (MT4) or of either cell growth medium (mock-infected) or a fresh 1:250 dilution of an HIV-IIIb concentrated ABI stock (0.004 m.o.i. for MT4 cells). Infected and uninfected cells are diluted in cell growth medium and 35 uL of 2000 (for MT4) cells is added to each well of the assay plates. Assay plates were then incubated in a 37° C. incubator. After 5 days of incubation, 25 μl of 2× concentrated CellTiter-Glo™ Reagent (catalog #G7573, Promega Biosciences, Inc., Madison, Wis.) was added to each well of the assay plate. Cell lysis was carried out by incubating at room temperature for 2-3 min and then chemiluminescence was read using the Envision reader (PerkinElmer).

[1] = Human immunodeficiency virus 1, IIIB, MT4, 120 h

SMILES | EC50 [1] [nM] | EC50 [nM]
Cc1cc2nc(-c3cccc(Cl)c3)ccc2c(-c2ccc3c4c(ccnc24)CCO3)c1[C@H](OC(C)(C)C)C(=O)O (atropisomer, axis not shown) [Compound 55, (S)-2-tert-Butoxy-2-((R)-2-(3-chlorophenyl)-5-(2,3-dihydropyrano[4,3,2-de]quinolin-7-yl)-7-methylquinolin-6-yl)acetic acid] | 41 | –
Cc1ccc2c(-c3ccc4c(c3Cl)NCCO4)c([C@H](OC(C)(C)C)C(=O)O)c(C)cc2n1 [Compound 89, (S)-2-tert-Butoxy-2-((R)-5-(5-chloro-3,4-dihydro-2H-benzo[b][1,4]oxazin-6-yl)-2,7-dimethylquinolin-6-yl)acetic acid] | – | 42
Cc1cc2nc(C(=O)N(C)c3ccccc3)ccc2c(-c2ccc(Cl)cc2)c1[C@H](OC(C)(C)C)C(=O)O [Compound 17, (S)-2-tert-butoxy-2-(5-(4-chlorophenyl)-7-methyl-2-(methyl(phenyl)carbamoyl)quinolin-6-yl)acetic acid] | 359 | –
Cc1cc2nc(C(F)F)ccc2c(-c2ccc(Cl)cc2)c1[C@H](OC(C)(C)C)C(=O)O [Compound 100, (S)-2-tert-butoxy-2-(5-(4-chlorophenyl)-2-(difluoromethyl)-7-methylquinolin-6-yl)acetic acid] | 75 | –
Cc1cc2nc(-c3cscn3)ccc2c(-c2ccc(Cl)cc2)c1[C@H](OC(C)(C)C)C(=O)O [Compound 76, (S)-2-tert-butoxy-2-(5-(4-chlorophenyl)-7-methyl-2-(thiazol-4-yl)quinolin-6-yl)acetic acid] | 267 | –
Cc1cc2nc(-c3ccnnc3)ccc2c(-c2ccc3c4c(ccnc24)CCO3)c1[C@H](OC(C)(C)C)C(=O)O [Compound 88, (S)-2-tert-butoxy-2-((R)-5-(2,3-dihydropyrano[4,3,2-de]quinolin-7-yl)-7-methyl-2-(pyridazin-4-yl)quinolin-6-yl)acetic acid] | 514 | –
Cc1cc2nc(C3CC3)ccc2c(-c2ccc(Cl)cc2)c1[C@H](OC(C)(C)C)C(=O)O [Compound 28, (S)-2-tert-butoxy-2-(5-(4-chlorophenyl)-2-cyclopropyl-7-methylquinolin-6-yl)acetic acid] | 43 | –
Cc1cc2nc(NC3CC3)ccc2c(-c2ccc(Cl)cc2)c1[C@H](OC(C)(C)C)C(=O)O [Compound 30, (S)-2-tert-butoxy-2-(5-(4-chlorophenyl)-2-(cyclopropylamino)-7-methylquinolin-6-yl)acetic acid] | 153 | –
Cc1cc2nc(CN(C)C)ccc2c(-c2ccc(Cl)cc2)c1[C@H](OC(C)(C)C)C(=O)O [Compound 9, (S)-2-tert-butoxy-2-(5-(4-chlorophenyl)-2-((dimethylamino)methyl)-7-methylquinolin-6-yl)acetic acid] | 173 | –
Cc1ccc2c(-c3ccc4c5c3CCCN5CCO4)c([C@H](OC(C)(C)C)C(=O)O)c(C)cc2n1 [Compound 103, (2S)-2-tert-butoxy-2-(2,7-dimethyl-5-(3,5,6,7-tetrahydro-2H-[1,4]oxazino[2,3,4-ij]quinolin-8-yl)quinolin-6-yl)acetic acid] | 25 | –
Cc1cc2c(ccc(=O)n2Cc2ccccc2)c(-c2ccc(Cl)cc2)c1[C@H](OC(C)(C)C)C(=O)O [Compound 65B, (S)-2-(1-benzyl-5-(4-chlorophenyl)-7-methyl-2-oxo-1,2-dihydroquinolin-6-yl)-2-tert-butoxyacetic acid] | 55 | –
Cc1cc2nc(-c3cncn3C)ccc2c(-c2ccc3c4c(ccnc24)CCO3)c1[C@H](OC(C)(C)C)C(=O)O (atropisomer, axis not shown) [Compound 83, (S)-2-tert-Butoxy-2-((R)-5-(2,3-dihydropyrano[4,3,2-de]quinolin-7-yl)-7-methyl-2-(1-methyl-1H-imidazol-5-yl)quinolin-6-yl)acetic acid] | 42 | –
Cc1cc2nc(-c3ccc(Cl)cc3)ccc2c(-c2ccc3c4c(ccnc24)CCO3)c1[C@H](OC(C)(C)C)C(=O)O (atropisomer, axis not shown) [Compound 56, (S)-2-tert-Butoxy-2-((R)-2-(4-chlorophenyl)-5-(2,3-dihydropyrano[4,3,2-de]quinolin-7-yl)-7-methylquinolin-6-yl)acetic acid] | 40 | –
Cc1cc2nc(C(C)(C)C)ccc2c(-c2ccc3c4c(ccnc24)CCO3)c1[C@H](OC(C)(C)C)C(=O)O [Compound 36, (S)-2-tert-butoxy-2-((R)-2-tert-butyl-5-(2,3-dihydropyrano[4,3,2-de]quinolin-7-yl)-7-methylquinolin-6-yl)acetic acid] | 20 | –
Cc1cc2nc(-c3cncnc3)ccc2c(-c2ccc(Cl)cc2)c1[C@H](OC(C)(C)C)C(=O)O [Compound 87, (S)-2-tert-Butoxy-2-(5-(4-chlorophenyl)-7-methyl-2-(pyrimidin-5-yl)quinolin-6-yl)acetic acid] | 175 | –
Cc1ccc2c(-c3ccc4c5c(cccc35)CCO4)c([C@H](OC(C)(C)C)C(=O)O)c(C)cc2n1 (single isomer, unassigned) [Compound 102B] | – | 110
Cc1cc2nc(OCc3ccccc3)ccc2c(-c2ccc(Cl)cc2)c1[C@H](OC(C)(C)C)C(=O)O [Compound 65A, (S)-2-(2-(benzyloxy)-5-(4-chlorophenyl)-7-methylquinolin-6-yl)-2-tert-butoxyacetic acid] | 85 | –
Cc1ccc2c(-c3ccc4c5c(ccnc35)CCO4)c([C@H](OC(C)(C)C)C(=O)O)c(C)cc2n1 [Compound 6D, (S)-2-tert-butoxy-2-((R)-5-(2,3-dihydropyrano[4,3,2-de]quinolin-7-yl)-2,7-dimethylquinolin-6-yl)acetic acid] | – | 20
Cc1cc2nc(-c3cn(C)cn3)ccc2c(-c2ccc3c4c(ccnc24)CCO3)c1[C@H](OC(C)(C)C)C(=O)O (atropisomer, axis not shown) [Compound 85, (S)-2-tert-butoxy-2-((R)-5-(2,3-dihydropyrano[4,3,2-de]quinolin-7-yl)-7-methyl-2-(1-methyl-1H-imidazol-4-yl)quinolin-6-yl)acetic acid] | 131 | –
Cc1cc2c(ccc(=O)n2Cc2ccccc2)c(-c2ccc3c4c(ccnc24)CCO3)c1[C@H](OC(C)(C)C)C(=O)O (atropisomer, axis not shown) [Compound 68, (S)-2-((R)-1-benzyl-5-(2,3-dihydropyrano[4,3,2-de]quinolin-7-yl)-7-methyl-2-oxo-1,2-dihydroquinolin-6-yl)-2-tert-butoxyacetic acid] | 29200 | –
C=CCCc1ccc2c(-c3ccc4c5c(ccnc35)CCO4)c([C@H](OC(C)(C)C)C(=O)O)c(C)cc2n1 (atropisomer, axis not shown) [Compound 48, (S)-2-((R)-2-(but-3-enyl)-5-(2,3-dihydropyrano[4,3,2-de]quinolin-7-yl)-7-methylquinolin-6-yl)-2-tert-butoxyacetic acid] | 26 | –
Cc1cc2c(ccc(=O)n2C)c(-c2ccc(Cl)cc2)c1[C@H](OC(C)(C)C)C(=O)O [Compound 67, (S)-2-tert-butoxy-2-(5-(4-chlorophenyl)-1,7-dimethyl-2-oxo-1,2-dihydroquinolin-6-yl)acetic acid] | 273 | –
Cc1cc2nc(-c3nccn3C)ccc2c(-c2ccc3c4c(ccnc24)CCO3)c1[C@H](OC(C)(C)C)C(=O)O (atropisomer, axis not shown) [Compound 84, (S)-2-tert-Butoxy-2-((R)-5-(2,3-dihydropyrano[4,3,2-de]quinolin-7-yl)-7-methyl-2-(1-methyl-1H-imidazol-2-yl)quinolin-6-yl)acetic acid] | 330 | –
Cc1cc2nc(CO)ccc2c(-c2ccc3c4c(ccnc24)CCO3)c1[C@H](OC(C)(C)C)C(=O)O [Compound 21, (S)-2-tert-Butoxy-2-((R)-5-(2,3-dihydropyrano[4,3,2-de]quinolin-7-yl)-2-(hydroxymethyl)-7-methylquinolin-6-yl)acetic acid] | 231 | –
Cc1cc2nc(CCc3ccccc3)ccc2c(-c2ccc3c4c(ccnc24)CCO3)c1[C@H](OC(C)(C)C)C(=O)O (atropisomer, axis not shown) [Compound 41, (S)-2-tert-butoxy-2-((R)-5-(2,3-dihydropyrano[4,3,2-de]quinolin-7-yl)-7-methyl-2-phenethylquinolin-6-yl)acetic acid] | 26 | –
Cc1cc2c(ccc3nc(-c4ccccc4)cn32)c(-c2ccc3c4c(ccnc24)CCO3)c1[C@H](OC(C)(C)C)C(=O)O (atropisomer, axis not shown) [Compound 61, (S)-2-tert-Butoxy-2-((R)-6-(2,3-dihydropyrano[4,3,2-de]quinolin-7-yl)-8-methyl-2-phenylimidazo[1,2-a]quinolin-7-yl)acetic acid] | 119 | –
Cc1cc2nc(CN(C)C)ccc2c(-c2ccc3c4c(ccnc24)CCO3)c1[C@H](OC(C)(C)C)C(=O)O [Compound 20, (S)-2-tert-butoxy-2-((R)-5-(2,3-dihydropyrano[4,3,2-de]quinolin-7-yl)-2-((dimethylamino)methyl)-7-methylquinolin-6-yl)acetic acid] | – | 1740
Cc1cc2nc(-c3cccnc3)ccc2c(-c2ccc(Cl)cc2)c1[C@H](OC(C)(C)C)C(=O)O [Compound 74, (S)-2-tert-butoxy-2-(5-(4-chlorophenyl)-7-methyl-2-(pyridin-3-yl)quinolin-6-yl)acetic acid] | 92 | –
